According to patent US20110160053A1, “Synergistic Combination of Prothioconazole and Metominostrobin” (Bayer CropScience AG, priority 2009, published 2011):

Key:
Type in all cases: in vivo
Phakopsora pachyrhizi = experiment: Phakopsora test (soybeans) / protective; conditions: evaluated 11 days after inoculation
Procedure: To produce a suitable preparation of active compound, 1 part by weight of active compound or active compound combination is mixed with the stated amounts of solvent and emulsifier, and the concentrate is diluted with water to the desired concentration.
To test for protective activity, young plants are sprayed with the preparation of active compound or active compound combination at the stated rate of application. After the spray coating has dried on, the plants are placed in a greenhouse at a temperature of approximately 23° C. and a relative atmospheric humidity of approximately 70%.
1 day after spraying, the plants are inoculated with an aqueous spore suspension of the causal agent of soybean rust (Phakopsora pachyrhizi). The plants are then placed in a greenhouse at approximately 20° C. and a relative atmospheric humidity of approximately 80%. The test is evaluated 11 days after the inoculation. 0% means an efficacy which corresponds to that of the control, while an efficacy of 100% means that no disease is observed.

[1] = test system: Blumeria graminis fsp. tritici; experiment: Blumeria test (wheat) / preventive; conditions: rate of application 62.5 ppm, evaluated 7 days after inoculation
Procedure: [table] To produce a suitable preparation of active compound, 1 part by weight of active compound or active compound combination is mixed with the stated amounts of solvent and emulsifier, and the concentrate is diluted with water to the desired concentration. To test for preventive activity, young plants are sprayed with the preparation of active compound or active compound combination at the stated rate of application. After the spray coating has been dried, the plants are dusted with spores of Blumeria graminis fsp. tritici. The plants are placed in the greenhouse at a temperature of approximately 18° C. and a relative atmospheric humidity of approximately 80% to promote the development of mildew pustules. The test is evaluated 7 days after the inoculation. 0% means an efficacy which corresponds to that of the control, while an efficacy of 100% means that no disease is observed.

Sphaerotheca fuliginea = experiment: Sphaerotheca test (cucumbers) / protective; conditions: rate of application 2 ppm, evaluated 7 days after inoculation
Procedure: [table] To produce a suitable preparation of active compound, 1 part by weight of active compound is mixed with the stated amounts of solvent and emulsifier, and the concentrate is diluted with water to the desired concentration. To test for protect activity, young plants are sprayed with the preparation of active compound at the stated rate of application. After the spray coating has dried on, the plants are inoculated with an aqueous spore suspension of Sphaerotheca fuliginea. The plants are then placed in a greenhouse at approximately 23° C. and a relative atmospheric humidity of approximately 70%. The test is evaluated 7 days after the inoculation. 0% means an efficacy which corresponds to that of the control, while an efficacy of 100% means that no disease is observed.

## CNC(=O)/C(=N/OC)c1ccccc1Oc1ccccc1 [Metominostrobin, (E)-α-(methoxyimino)-N-methyl-2-phenoxy-benzeneacetamide]
Phakopsora pachyrhizi; rate of application 2.5 ppm
  Efficacy in %: 0%
Phakopsora pachyrhizi; rate of application 5 ppm
  Efficacy in %: 20%
[1]
  Efficacy in %: 50%
Sphaerotheca fuliginea
  Efficacy in %: 0%

## OC(Cc1ccccc1Cl)(Cn1nc[nH]c1=S)C1(Cl)CC1 (centres unmarked) [Prothioconazole, 2-[2-(1-chlorocyclopropyl)-3-(2-chlorophenyl)-2-hydroxypropyl]-2,4-dihydro-[1,2,4]-triazole-3-thione]
Phakopsora pachyrhizi; rate of application 0.1 ppm
  Efficacy in %: 20%
Phakopsora pachyrhizi; rate of application 0.5 ppm
  Efficacy in %: 50%
[1]
  Efficacy in %: 13%
Sphaerotheca fuliginea
  Efficacy in %: 65%
